Eight molecules from patent publication US10336732B2, “1-heterocyclyl isochromanyl compounds and analogs for treating CNS disorders” (Sunovion Pharmaceuticals Inc., priority 2015, dated 2019) can be followed below.

Each structure is given as a SMILES string.

Common to all, as to design: concentration or dose not given beside the values
Assay [1] deals with T1, 5-HT2B (Homo sapiens, UniProt P41595).
T1 construct: expressed in transfected cells; host or cells: CHO cells
Description: In vitro radioligand binding assay, 5-HT2B, [125I](±)DOI. Particulars: human recombinant (CHO cells). As for the experimental part: (§1) Certain compounds were tested by in vitro binding assays using standard procedures. […] These receptors and assays are well known to those skilled in the art, as exemplified by the following: Abramovitz, M. et al. (2000), Biochem. Biophys. Acta., 1483: 285-293 (EP4, IP (PGI2)); Aharony, D. et al. (1993), Mol. Pharmacol., 44: 356-363 (NK2); Ardati, A. et al. (1997), Mol. Pharmacol., 51: 816-824 (NOP (ORL1)); Bignon, E. et al. (1999), J. Pharmacol. Exp. Ther. 289: 742-751 (CCK1 (CCKA)); Bloomquist, B. T. et al. (1998), Biochem. Biophys. Res. Commun., 243: 474-479 (GAL2); Brockhaus, M. et al. (1990), Proc. Natl. Acad. Sci. U.S.A., 87: 3127-3131 (TNF-α); Brown, G. B. (1986), J. Neurosci., 6: 2064-2070 (Na+ channel (site 2)); Buchan, K. W. et al. (1994), Brit. J. Pharmacol., 112: 1251-1257 (ETA); Cesura, A. M. et al. (1990), Mol. Pharmacol., 37: 358-366 (MAO-A); Choi, D. S. et al. (1994), FEBS Lett., 352: 393-399 (5-HT2B); Clark, A. F. et al. (1996), Invest. Ophtalmol. Vis. Sci., 37: 805-813 (GR); Couvineau, A. et al. (1985), Biochem. J., 231: 139-143 (VPAC1 (VIP1)); Dorje, F. et al. (1991), J. Pharmacol. Exp. Ther., 256: 727-733 (M1, M2, M3, M4); Ferry, G. et al. (2001), Eur. J. Pharmacol., 417: 77-89 (PPARγ); Fuchs, S. et al. (2001), Mol. Med., 7: 115-124 (ETB); Fuhlendorff, J. et al. (1990), Proc. Natl. Acad. Sci. U.S.A., 87: 182-186 (Y2); Ganapathy M E. et al. (1999), J. Pharmacol. Exp. Ther., 289: 251-260 (sigma (non-selective)); Gopalakrishnan, M. et al. (1996), J. Pharmacol. Exp. Ther., 276: 289-297 (N neuronal α4β2); Greengrass, P. and Bremner, R. (1979), Eur. J. Pharmacol., 55: 323-326 (α1 (non-selective)); Grandy, D. K. et al. (1989), Proc. Natl. Acad. Sci. U.S.A., 86: 9762-9766 (D25); Guard, S. et al. (1993), Eur. J. Pharmacol., 240:177-184 (BB (non-selective)); Heuillet, E. et al. (1993), J. Neurochem., 60: 868-876 (NK1, P2X); Hope, A. G. et al. (1996), Brit. J. Pharmacol., 118: 1237-1245 (5-HT3); Hoyer, D. et al. (1985), Eur. J. Pharmacol., 118: 1-12 (5-HT1B); Hugues, M. et al. (1982), J. Biol. Chem., 257: 2762-2769 (5-HT2A, SKCa channel); Joseph, S. S. et al. (2004), Naun.-Sch. Arch. Pharm., 369: 525-532 (β2); Le, M. T. et al. (2005), Eur. J. Pharmacol., 513: 35-45 (AT1); Le Fur, G. et al. (1983), Life Sci., 33: 449-457) (BZD (peripheral); Lee, Y. M. et al. (1993), J. Biol. Chem., 268: 8164-8169 (CCK2 (CCKB)); Leurs, R. et al. (1994), Brit. J. Pharmacol., 112: 847-854 (H2); Levin, M. C. et al. (2002), J. Biol. Chem., 277: 30429-30435 (11); Lewin, A. H. et al. (1989), Mol. Pharmacol., 35: 189-194 (Cl− channel (GABA-gated)); Lukas, R. J. (1986), J. Neurochem., 46: 1936-1941 (N muscle-type); Luthin, D. R. et al. (1995), Mol. Pharmacol., 47: 307-313; (A2A); Mackenzie, R. G. et al. (1994), Eur. J. Pharmacol., 266: 79-85 (D3); Mulheron, J. G. et al. (1994), J. Biol. Chem., 269: 12954-12962 (5-HT1A); Meng, F. et al. (1993), Proc. Natl. Acad. Sci. U.S.A., 90: 9954-9958 (κ (KOP)); Monsma, F. J. et al. (1993), Mol. Pharmacol., 43: 320-327 (5-HT6); Neote, K. et al. (1993), Cell, 72: 415-425 (CCR1); Pacholczyk, T. et al. (1991), Nature, 350: 350-354 (sst (non-selective, norepinephrine transporter)); Peralta, E. G. et al. (1987), Embo. J., 6: 3923-3929 (M3); Pristupa, Z. B. et al. (1994), Mol. Pharmacol., 45: 125-135 (dopamine transporter); Pruneau, D. et al. (1998), Brit. J. Pharmacol., 125: 365-372 (B2); Rees, S. et al. (1994), FEBS Lett., 355: 242-246 (5-HT5a); Reynolds, I. J. et al. (1986), J. Pharmacol. Exp. Ther., 237: 731-738 (Ca2+ channel (L, verapamil site)); Rinaldi-Carmona, M. et al. (1996), J. Pharmacol. Exp. Ther., 278: 871-878 (CB1); Salvatore, C. A. et al. (1993), Proc. Natl. Acad. Sci. U.S.A., 90: 10365-10369 (A3); Sarau, H. M. et al. (1997), J. Pharmacol. Exp. Ther., 281: 1303-1311 (NK3); Schioth, H. B. et al. (1997), Neuropeptides, 31: 565-571 (MC4); Sharples, C. […]

Assay [2] concerns α2 (non-selective). Description: In vitro radioligand binding assay, α2 (non-selective), [3H]RX 821002. The settings on record: rat cerebral cortex membranes. As for the experimental part:
as §1

Assay [3] has as its system α1 (non-selective). Description: In vitro radioligand binding assay, α1 (non-selective), [3H]prazosin. The settings on record: rat cerebral cortex membranes. As for the experimental part:
as §1

T1 sequence (P41595 whole entry): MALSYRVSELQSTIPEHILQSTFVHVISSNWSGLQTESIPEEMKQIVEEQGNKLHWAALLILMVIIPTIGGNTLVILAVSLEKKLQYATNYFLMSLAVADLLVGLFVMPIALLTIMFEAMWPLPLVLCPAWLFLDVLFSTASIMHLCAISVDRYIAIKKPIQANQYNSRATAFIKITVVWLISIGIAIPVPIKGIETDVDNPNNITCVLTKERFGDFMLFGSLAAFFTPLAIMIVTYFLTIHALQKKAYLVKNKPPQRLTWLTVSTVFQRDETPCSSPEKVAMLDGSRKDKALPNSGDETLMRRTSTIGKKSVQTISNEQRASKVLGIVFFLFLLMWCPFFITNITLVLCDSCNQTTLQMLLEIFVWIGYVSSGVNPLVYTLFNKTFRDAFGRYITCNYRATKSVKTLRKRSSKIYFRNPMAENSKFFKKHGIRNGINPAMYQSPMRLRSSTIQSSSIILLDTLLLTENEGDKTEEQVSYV

As to `Fc1cccc2c1[C@H]([C@@H]1CCN1)OCC2` [Compound I-83, (S)-2-((R)-8-fluoroisochroman-1-yl)azetidine], in assay [1], the “5HT2b percent inhibition of specific binding” value (“5HT2b percent inhibition” below) is reported as 83%. Also, the “α2 percent inhibition of specific binding” value (“α2 percent inhibition” for short) in assay [2] was found to be 77%.
`Fc1cccc2c1CCO[C@@H]2[C@@H]1CCN1` [Compound I-94, (S)-2-((S)-5-fluoroisochroman-1-yl)azetidine]: the “5HT2b percent inhibition” value in assay [1] is 76%. For the same molecule, in assay [3], the “α1 percent inhibition of specific binding” value (“α1 percent inhibition” below) was 72%.
On to `Fc1cccc2c1[C@H]([C@@H]1CCCN1)OCC2` [Compound I-1, (S)-2-((R)-8-fluoroisochroman-1-yl)pyrrolidine], for which, in assay [1], the “5HT2b percent inhibition” value came to 79%. The “α1 percent inhibition” value in assay [3] is 55%. In addition, the “α2 percent inhibition” value in assay [2] amounted to 95%.
`Fc1ccc2c(c1)CCO[C@H]2[C@@H]1CCN1` [Compound I-90, (S)-2-((R)-6-fluoroisochroman-1-yl)azetidine]: the “5HT2b percent inhibition” value in assay [1] is listed as 77%. Further, the “α1 percent inhibition” value in assay [3] was found to be 64%. Also, the “α2 percent inhibition” value in assay [2] is given as 71%.
In the same order, the values of `Fc1cccc2c1CCO[C@@H]2[C@H]1CCN1` [Compound I-96, (R)-2-((S)-5-fluoroisochroman-1-yl)azetidine] are 58%, 81% and 81%.
On to `Fc1ccc2c(c1)CCO[C@H]2[C@@H]1CCCN1` [Compound I-9, (S)-2-((R)-6-fluoroisochroman-1-yl)pyrrolidine], for which the “5HT2b percent inhibition” value in assay [1] is on record as 76%. The “α1 percent inhibition” value in assay [3] is listed as 73%. Also, in assay [2], the “α2 percent inhibition” value is recorded as 91%.
In the same order, the values of `Clc1ccc2c(c1)[C@H]([C@@H]1CCCN1)OCC2` [Compound I-29, (S)-2-((R)-7-chloroisochroman-1-yl)pyrrolidine] are 80%, 69% and 97%.
In the case of `Fc1ccc2c(c1)[C@H]([C@@H]1CCCN1)OCC2` [Compound I-5, (2S)-2-((R)-7-fluoroisochroman-1-yl)pyrrolidine], in assay [1], the “5HT2b percent inhibition” value came out at 72%. Also, in assay [3], the “α1 percent inhibition” value came to 59%. Besides, the “α2 percent inhibition” value in assay [2] came to 96%.
